Values quoted from earlier work as cited in US20090062244A1, “PHARMACEUTICAL COMPOSITION” (priority 2007, published 2009).

Settings: room temperature

O=C(OOC(=O)c1ccccc1)c1ccccc1 [benzoyl peroxide]
Solubility in 95% alcohol compared with absolute alcohol: several times lower
